Measured values: PMC7031696 (Cell chemical biology, 2019)
Like-named read-outs stand apart in the source and are kept apart here.

How the values were obtained:
[1] = test system: asynchronous 3D7-A10 parasite cultures; assay: Standard 72-h exposure asexual blood stage susceptibility assay (IC50^72h); format: cell-based, Plasmodium falciparum; conditions: Plasmodium falciparum, 3D7, 72 h, read-out: Overall (72hr assay) Mean IC50 (IC50^72h)
[2] = test system: Plasmodium falciparum 3D7-A10 parasites; assay: Stage specificity assay (8-h exposure of synchronized stages, IC50^8h); format: cell-based; conditions: Plasmodium falciparum
[3] = test system: 3D7-MR4 trophozoite parasite-infected RBCs; assay: Metabolomic profiling (hydrophilic metabolite changes, UHPLC-MS); format: cell-based, Plasmodium falciparum

## COc1ccc(C2c3ccc4ccccc4c3Oc3ncn(CCCN(C)C)c(=N)c32)cc1 (centres unmarked) [MMV667491]
[1]
  IC50: 0.243 µM
[2]; 3D7, read-out: Early rings Mean IC50 (IC50^8h), 8-h exposure 0–8 hr, 3D7-A10, survival at 60 h
  IC50: 2.26 µM
[2]; 3D7, read-out: Early trophozoites Mean IC50 (IC50^8h), 8-h exposure 16–24 hr, 3D7-A10, survival at 60 h
  IC50: 0.521 µM
[2]; 3D7, read-out: Late rings Mean IC50 (IC50^8h), 8-h exposure 8–16 hr, 3D7-A10, survival at 60 h
  IC50: 1.27 µM
[2]; 3D7, read-out: Late trophozoites Mean IC50 (IC50^8h), 8-h exposure 24–32 hr, 3D7-A10, survival at 60 h
  IC50: 0.731 µM
[2]; 3D7, read-out: Schizonts Mean IC50 (IC50^8h), 8-h exposure 32–40 hr, 3D7-A10, survival at 60 h
  IC50: 0.842 µM
[3]; 10 × IC50^72h, 2.5 hr, trophozoites
  peptide levels (hemoglobin catabolism signature): decreased peptide levels
[3]; metabolite 3-phosphoglycerate, log2 fold change
  Log2(fold changes) 3-phosphoglycerate: 0.2589
[3]; metabolite 4-Pyridoxic acid, log2 fold change
  Log2(fold changes) 4-Pyridoxic acid: 0.1545
[3]; metabolite 4-aminobutyrate, log2 fold change
  Log2(fold changes) 4-aminobutyrate: -0.0143
[3]; metabolite 4-phosphopantetheine, log2 fold change
  Log2(fold changes) 4-phosphopantetheine: 0.0000
[3]; metabolite 4-phosphopantothenate, log2 fold change
  Log2(fold changes) 4-phosphopantothenate: -0.5959
[3]; metabolite 5-aminopentanoic acid, log2 fold change
  Log2(fold changes) 5-aminopentanoic acid: 0.0000
[3]; metabolite 5-methyl-THF, log2 fold change
  Log2(fold changes) 5-methyl-THF: 0.0000
[3]; metabolite 5-phosphoribosyl-1-pyrophosphate, log2 fold change
  Log2(fold changes) 5-phosphoribosyl-1-pyrophosphate: 0.0000
[3]; metabolite 6-phospho-D-gluconate, log2 fold change
  Log2(fold changes) 6-phospho-D-gluconate: -0.3071
[3]; metabolite HVDD
  Log2(fold change) HVDD: -3.1004
[3]; metabolite Hydroxyisocaproic acid
  Log2(fold change) Hydroxyisocaproic acid: 0.0000
[3]; metabolite IDP
  Log2(fold change) IDP: 0.0000
[3]; metabolite IMP
  Log2(fold change) IMP: -0.4029
[3]; metabolite Inositol
  Log2(fold change) Inositol: 0.0000
[3]; metabolite Isopentyl-PP
  Log2(fold change) Isopentyl-PP: -0.4741
[3]; metabolite L-arginino-succinate
  Log2(fold change) L-arginino-succinate: 1.0249
[3]; metabolite LD
  Log2(fold change) LD: 0.5039
[3]; metabolite Myristoyl/tetradecanoyl-CoA
  Log2(fold change) Myristoyl/tetradecanoyl-CoA: 0.0000
[3]; metabolite N-Acetyl-L-alanine
  Log2(fold change) N-Acetyl-L-alanine: -0.5066
[3]; metabolite N-acetyl-L-ornithine
  Log2(fold change) N-acetyl-L-ornithine: -0.0359
[3]; metabolite N-acetyl-glucosamine-1/6-phosphate
  Log2(fold change) N-acetyl-glucosamine-1/6-phosphate: -0.2210
[3]; metabolite N-acetyl-glutamate
  Log2(fold change) N-acetyl-glutamate: -0.3035
[3]; metabolite N-acetyl-glutamine
  Log2(fold change) N-acetyl-glutamine: 2.2691
[3]; metabolite N-carbamoyl-L-aspartate
  Log2(fold change) N-carbamoyl-L-aspartate: -0.9439
[3]; metabolite NAD+
  Log2(fold change) NAD+: -0.1377
[3]; metabolite NADH
  Log2(fold change) NADH: 0.2776
[3]; metabolite NADP+
  Log2(fold change) NADP+: 0.1452
[3]; metabolite NADPH
  Log2(fold change) NADPH: 0.1884
[3]; metabolite O-acetyl-L-serine
  Log2(fold change) O-acetyl-L-serine: -0.0049
[3]; metabolite Octoluse 8/1P
  Log2(fold change) Octoluse 8/1P: 0.3908
[3]; metabolite Octoluse Bisphosphate
  Log2(fold change) Octoluse Bisphosphate: 1.4853
[3]; metabolite PD
  Log2(fold change) PD: -2.5358
[3]; metabolite PE
  Log2(fold change) PE: -0.3826
[3]; metabolite PEE
  Log2(fold change) PEE: -0.0417
[3]; metabolite PEEK
  Log2(fold change) PEEK: 0.3987
[3]; metabolite PVNF
  Log2(fold change) PVNF: -3.7257
[3]; metabolite Pyroglutamic acid
  Log2(fold change) Pyroglutamic acid: -0.2992
[3]; metabolite Pyrophosphate
  Log2(fold change) Pyrophosphate: 0.0000
[3]; metabolite Ribose-5-phosphate
  Log2(fold change) Ribose-5-phosphate: -0.2620
[3]; metabolite S-adenosyl-L-homocysteine
  Log2(fold change) S-adenosyl-L-homocysteine: 0.0103
[3]; metabolite S-adenosyl-L-methioninamine
  Log2(fold change) S-adenosyl-L-methioninamine: -2.2715
[3]; metabolite S-adenosyl-L-methionine
  Log2(fold change) S-adenosyl-L-methionine: 0.0000
[3]; metabolite S-methyl-5'-thioadenosine
  Log2(fold change) S-methyl-5'-thioadenosine: 1.0471
[3]; metabolite SD
  Log2(fold change) SD: -1.2290
[3]; metabolite SDL
  Log2(fold change) SDL: 0.0000
[3]; metabolite SID
  Log2(fold change) SID: -0.4398
[3]; metabolite Sedoheptulose bisphosphate
  Log2(fold change) Sedoheptulose bisphosphate: 1.3696
[3]; metabolite Thiamine pyrophosphate
  Log2(fold change) Thiamine pyrophosphate: -0.0845
[3]; metabolite UDP-D-glucose, log2 fold change
  Log2(fold changes) UDP-D-glucose: 0.2535
[3]; metabolite UDP-D-glucuronate, log2 fold change
  Log2(fold changes) UDP-D-glucuronate: 0.0929
[3]; metabolite UDP-N-acetyl-glucosamine, log2 fold change
  Log2(fold changes) UDP-N-acetyl-glucosamine: -0.0110
[3]; metabolite UDP, log2 fold change
  Log2(fold changes) UDP: -0.5582
[3]; metabolite UMP, log2 fold change
  Log2(fold changes) UMP: -1.0091
[3]; metabolite UTP, log2 fold change
  Log2(fold changes) UTP: 0.0000
[3]; metabolite hydroxyphenylpyruvate
  Log2(fold change) hydroxyphenylpyruvate: 0.0000
[3]; metabolite hydroxyproline/Aminolevulinate
  Log2(fold change) hydroxyproline/Aminolevulinate: -0.0313
[3]; metabolite hypoxanthine
  Log2(fold change) hypoxanthine: 0.1226
[3]; metabolite indole
  Log2(fold change) indole: 0.0000
[3]; metabolite inosine
  Log2(fold change) inosine: 0.0977
[3]; metabolite isoleucine
  Log2(fold change) isoleucine: 0.0000
[3]; metabolite lactate
  Log2(fold change) lactate: -0.2958
[3]; metabolite leucine
  Log2(fold change) leucine: 0.0000
[3]; metabolite lysine
  Log2(fold change) lysine: -0.5255
[3]; metabolite malate
  Log2(fold change) malate: -0.2587
[3]; metabolite maleic acid
  Log2(fold change) maleic acid: -0.3091
[3]; metabolite methionine
  Log2(fold change) methionine: 0.3155
[3]; metabolite myo-inositol
  Log2(fold change) myo-inositol: -0.2765
[3]; metabolite nicotinamide mononucleotide
  Log2(fold change) nicotinamide mononucleotide: -0.3204
[3]; metabolite nicotinate
  Log2(fold change) nicotinate: -0.1938
[3]; metabolite ornithine
  Log2(fold change) ornithine: 0.1211
[3]; metabolite orotate
  Log2(fold change) orotate: -0.0965
[3]; metabolite orotidine-5'-phosphate
  Log2(fold change) orotidine-5'-phosphate: -2.6245
[3]; metabolite oxaloacetate
  Log2(fold change) oxaloacetate: -0.0776
[3]; metabolite p-aminobenzoate
  Log2(fold change) p-aminobenzoate: 0.0000
[3]; metabolite p-hydroxybenzoate
  Log2(fold change) p-hydroxybenzoate: 0.0000
[3]; metabolite pantothenate
  Log2(fold change) pantothenate: 0.1007
[3]; metabolite phenylalanine
  Log2(fold change) phenylalanine: -0.2555
[3]; metabolite phenylpyruvate
  Log2(fold change) phenylpyruvate: 0.0000
[3]; metabolite phosphoenolpyruvate
  Log2(fold change) phosphoenolpyruvate: 0.7161
[3]; metabolite prephenate
  Log2(fold change) prephenate: -0.9019
[3]; metabolite proline
  Log2(fold change) proline: -0.2246
[3]; metabolite pyridoxine
  Log2(fold change) pyridoxine: -0.1003
[3]; metabolite pyruvate
  Log2(fold change) pyruvate: -0.3220
[3]; metabolite riboflavin
  Log2(fold change) riboflavin: 0.6538
[3]; metabolite ribose
  Log2(fold change) ribose: 0.3285
[3]; metabolite ribose-phosphate
  Log2(fold change) ribose-phosphate: -0.4272
[3]; metabolite ribulose-5-phosphate
  Log2(fold change) ribulose-5-phosphate: -0.4317
[3]; metabolite serine
  Log2(fold change) serine: 0.1307
[3]; metabolite sn-glycerol-3-phosphate
  Log2(fold change) sn-glycerol-3-phosphate: 0.0813
[3]; metabolite succinate/Methylmalonic acid
  Log2(fold change) succinate/Methylmalonic acid: -0.0916
[3]; metabolite succinyl-CoA/methylmalonyl-CoA
  Log2(fold change) succinyl-CoA/methylmalonyl-CoA: 0.0000
[3]; metabolite taurine
  Log2(fold change) taurine: 0.1233
[3]; metabolite thiamine
  Log2(fold change) thiamine: -0.6378
[3]; metabolite threonine/homoserine
  Log2(fold change) threonine/homoserine: -0.0132
[3]; metabolite thymidine
  Log2(fold change) thymidine: 0.0000
[3]; metabolite thymine, log2 fold change
  Log2(fold changes) thymine: 0.0000
[3]; metabolite trehalose-6-Phosphate, log2 fold change
  Log2(fold changes) trehalose-6-Phosphate: 0.0000
[3]; metabolite tryptophan, log2 fold change
  Log2(fold changes) tryptophan: -0.6838
[3]; metabolite tyrosine, log2 fold change
  Log2(fold changes) tyrosine: 0.0515
[3]; metabolite uridine, log2 fold change
  Log2(fold changes) uridine: 0.0000
